Reference: patent publication US20260274892A1, “MACROCYCLIC BROAD SPECTRUM ANTIBIOTICS” (RQx Pharmaceuticals, Inc., priority 2017, published 2026)

Each compound was assayed on Escherichia coli ATCC 25922 (assay: Minimum inhibitory concentration (MIC), CLSI broth micro-dilution, E. coli). Settings: Escherichia coli, ATCC25922, 22 h, Table 7, cation adjusted Mueller Hinton Broth + 0.002% Tween-80, 35° C.
Format: cell-based
How it was run: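 Antibacterial potency is measured as MIC by the CLSI broth dilution method. Bacteria at OD600 0.0005 in Tween-80-supplemented cation-adjusted Mueller Hinton broth face ten twofold compound dilutions for 22 h at 35° C.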
`Cc1nc(-c2ccc(C(C)(C)C)cc2)nc(C)c1C(=O)N[C@@H](CCN)C(=O)N(C)[C@@H]1C(=O)N[C@@H](C)C(=O)N[C@H](C(=O)NCC#N)Cc2ccc(O)c(c2)-c2cc1ccc2OCCNC(=N)N` (racemic) [Compound 595, rac-(8S,11S,14S)-N-(cyanomethyl)-18-(2-guanidinoethoxy)-3-hydroxy-11-methyl-14-[methyl-[rac-(2S)-4-amino-2-[[2-(4-tert-butylphenyl)-4,6-dimethyl-pyrimidine-5-carbonyl]amino]butanoyl]amino]-10,13-dioxo-9,12-diazatricyclo[13.3.1.12,6]icosa-1(18),2(20),3,5,15(19),16-hexaene-8-carboxamide] showed an MIC of 0.33 µM. `Cc1nc(-c2ccc(C(C)(C)C)cc2)nc(C)c1C(=O)N[C@@H](CCN)C(=O)N(C)[C@@H]1C(=O)N[C@@H](C)C(=O)N[C@H](C(=O)NCC#N)Cc2ccc(O)c(c2)-c2cc1ccc2OCCCNC(=N)N` (racemic) [Compound 596, rac-(8S,11S,14S)-N-(cyanomethyl)-18-(3-guanidinopropoxy)-3-hydroxy-11-methyl-14-[methyl-[rac-(2S)-4-amino-2-[[2-(4-tert-butylphenyl)-4,6-dimethyl-pyrimidine-5-carbonyl]amino]butanoyl]amino]-10,13-dioxo-9,12-diazatricyclo[13.3.1.12,6]icosa-1(18),2(20),3,5,15(19),16-hexaene-8-carboxamide] gave an MIC of 0.5 µM. For `Cc1nc(-c2ccc(C(C)(C)C)cc2)nc(C)c1C(=O)N[C@@H](CCN)C(=O)N(C)[C@@H]1C(=O)N[C@@H](C)C(=O)N[C@H](C(=O)NCC#N)Cc2ccc(OCCCN)c(c2)-c2cc1ccc2O` (racemic) [Compound 597, rac-(8S,11S,14S)-3-(3-aminopropoxy)-N-(cyanomethyl)-18-hydroxy-11-methyl-14-[methyl-[rac-(2S)-4-amino-2-[[2-(4-tert-butylphenyl)-4,6-dimethyl-pyrimidine-5-carbonyl]amino]butanoyl]amino]-10,13-dioxo-9,12-diazatricyclo[13.3.1.12,6]icosa-1(18),2(20),3,5,15(19),16-hexaene-8-carboxamide], the MIC was 0.26 µM. `CCCCCOc1ccc(-c2nc(C)c(C(=O)N[C@@H](CCN)C(=O)N(C)[C@@H]3C(=O)N[C@@H](C)C(=O)N[C@H](C(=O)NCC#N)Cc4ccc(O)c(c4)-c4cc3ccc4OCCCN)c(C)n2)cc1` (racemic) [Compound 598, rac-(8S,11S,14S)-18-(3-aminopropoxy)-N-(cyanomethyl)-3-hydroxy-11-methyl-14-[methyl-[rac-(2S)-4-amino-2-[[4,6-dimethyl-2-(4-pentoxyphenyl)pyrimidine-5-carbonyl]amino]butanoyl]amino]-10,13-dioxo-9,12-diazatricyclo[13.3.1.12,6]icosa-1(18),2(20),3,5,15(19),16-hexaene-8-carboxamide] gave an MIC of 0.094 µM. `CNCCOc1ccc2cc1-c1cc(ccc1O)C[C@@H](C(=O)NCC#N)NC(=O)[C@H](C)NC(=O)[C@H]2N(C)C(=O)[C@H](CCN)NC(=O)c1c(C)nc(-c2ccc(C(C)(C)C)cc2)nc1C` (racemic) [Compound 600, rac-(8S,11S,14S)-N-(cyanomethyl)-3-hydroxy-11-methyl-18-[2-(methylamino)ethoxy]-14-[methyl-[rac-(2S)-4-amino-2-[[2-(4-tert-butylphenyl)-4,6-dimethyl-pyrimidine-5-carbonyl]amino]butanoyl]amino]-10,13-dioxo-9,12-diazatricyclo[13.3.1.12,6]icosa-1(18),2(20),3,5,15(19),16-hexaene-8-carboxamide] gave an MIC of 0.38 µM. In the case of `Cc1nc(-c2ccc(C(C)(C)C)cc2)nc(C)c1C(=O)N[C@@H](CCN)C(=O)N(C)[C@@H]1C(=O)N[C@@H](C)C(=O)N[C@H](C(=O)NCC#N)Cc2ccc(O)c(c2)-c2cc1ccc2OCCNCCN` (racemic) [Compound 601, rac-(8S,11S,14S)-18-[2-(2-aminoethylamino)ethoxy]-N-(cyanomethyl)-3-hydroxy-11-methyl-14-[methyl-[rac-(2S)-4-amino-2-[[2-(4-tert-butylphenyl)-4,6-dimethyl-pyrimidine-5-carbonyl]amino]butanoyl]amino]-10,13-dioxo-9,12-diazatricyclo[13.3.1.12,6]icosa-1(18),2(20),3,5,15(19),16-hexaene-8-carboxamide], the MIC is reported as 0.5 µM. `Cc1nc(-c2ccc(C(C)(C)C)cc2)nc(C)c1C(=O)N[C@@H](CCN)C(=O)N(C)[C@@H]1C(=O)N[C@@H](C)C(=O)N[C@H](C(=O)NCC#N)Cc2ccc(O)c(c2)-c2cc1ccc2OCCNCCCN` (racemic) [Compound 602, rac-(8S,11S,14S)-18-[2-(3-aminopropylamino)ethoxy]-N-(cyanomethyl)-3-hydroxy-11-methyl-14-[methyl-[rac-(2S)-4-amino-2-[[2-(4-tert-butylphenyl)-4,6-dimethyl-pyrimidine-5-carbonyl]amino]butanoyl]amino]-10,13-dioxo-9,12-diazatricyclo[13.3.1.12,6]icosa-1(18),2(20),3,5,15(19),16-hexaene-8-carboxamide] gave an MIC of 0.063 µM. For `Cc1nc(-c2ccc(C(C)(C)C)cc2)nc(C)c1C(=O)N[C@@H](CCN)C(=O)N(C)[C@@H]1C(=O)N[C@@H](C)C(=O)N[C@H](C(=O)NCC#N)Cc2ccc(O)c(c2)-c2cc1ccc2OC1CNC1` (racemic) [Compound 604, rac-(8S,11S,14S)-18-(azetidin-3-yloxy)-N-(cyanomethyl)-3-hydroxy-11-methyl-14-[methyl-[rac-(2S)-4-amino-2-[[2-(4-tert-butylphenyl)-4,6-dimethyl-pyrimidine-5-carbonyl]amino]butanoyl]amino]-10,13-dioxo-9,12-diazatricyclo[13.3.1.12,6]icosa-1(18),2(20),3,5,15(19),16-hexaene-8-carboxamide], the MIC was 0.75 µM. With `Cc1nc(-c2ccc(C(C)(C)C)cc2)nc(C)c1C(=O)N[C@@H](CCN)C(=O)N(C)[C@@H]1C(=O)N[C@@H](C)C(=O)N[C@H](C(=O)NCC#N)Cc2ccc(OC3CNC3)c(c2)-c2cc1ccc2O` (racemic) [Compound 605, rac-(8S,11S,14S)-3-(azetidin-3-yloxy)-N-(cyanomethyl)-18-hydroxy-11-methyl-14-[methyl-[rac-(2S)-4-amino-2-[[2-(4-tert-butylphenyl)-4,6-dimethyl-pyrimidine-5-carbonyl]amino]butanoyl]amino]-10,13-dioxo-9,12-diazatricyclo[13.3.1.12,6]icosa-1(18),2(20),3,5,15(19),16-hexaene-8-carboxamide] the MIC was 0.75 µM. `Cc1nc(-c2ccc(C(C)(C)C)cc2)nc(C)c1C(=O)N[C@@H](CCN)C(=O)N(C)[C@@H]1C(=O)N[C@@H](C)C(=O)N[C@H](C(=O)NCC#N)Cc2ccc(OC(C)CN)c(c2)-c2cc1ccc2O` (mixture of isomers) [Compound 606, rac-(8S,11S,14S)-3-(2-amino-1-methyl-ethoxy)-N-(cyanomethyl)-18-hydroxy-11-methyl-14-[methyl-[rac-(2S)-4-amino-2-[[2-(4-tert-butylphenyl)-4,6-dimethyl-pyrimidine-5-carbonyl]amino]butanoyl]amino]-10,13-dioxo-9,12-diazatricyclo[13.3.1.12,6]icosa-1(18),2(20),3,5,15(19),16-hexaene-8-carboxamide] showed an MIC of 0.5 µM. In the case of `Cc1nc(-c2ccc(C(C)(C)C)cc2)nc(C)c1C(=O)N[C@@H](CCN)C(=O)N(C)[C@@H]1C(=O)N[C@@H](C)C(=O)N[C@H](C(=O)NCC#N)Cc2ccc(O)c(c2)-c2cc1ccc2OC(C)CN` (mixture of isomers) [Compound 607, rac-(8S,11S,14S)-18-(2-amino-1-methyl-ethoxy)-N-(cyanomethyl)-3-hydroxy-11-methyl-14-[methyl-[rac-(2S)-4-amino-2-[[2-(4-tert-butylphenyl)-4,6-dimethyl-pyrimidine-5-carbonyl]amino]butanoyl]amino]-10,13-dioxo-9,12-diazatricyclo[13.3.1.12,6]icosa-1(18),2(20),3,5,15(19),16-hexaene-8-carboxamide], the MIC is reported as 0.5 µM. `Cc1nc(-c2ccc(C(C)(C)C)cc2)nc(C)c1C(=O)N[C@@H](CCN)C(=O)N(C)[C@@H]1C(=O)N[C@@H](C)C(=O)N[C@H](C(=O)NCC#N)Cc2ccc(O)c(c2)-c2cc1ccc2OC1CCNCC1` (racemic) [Compound 608, rac-(8S,11S,14S)-N-(cyanomethyl)-3-hydroxy-11-methyl-14-[methyl-[rac-(2S)-4-amino-2-[[2-(4-tert-butylphenyl)-4,6-dimethyl-pyrimidine-5-carbonyl]amino]butanoyl]amino]-10,13-dioxo-18-(4-piperidyloxy)-9,12-diazatricyclo[13.3.1.12,6]icosa-1(18),2(20),3,5,15(19),16-hexaene-8-carboxamide] gave an MIC of 0.38 µM. `Cc1nc(-c2ccc(C(C)(C)C)cc2)nc(C)c1C(=O)N[C@@H](CCN)C(=O)N(C)[C@@H]1C(=O)N[C@@H](C)C(=O)N[C@H](C(=O)NCC#N)Cc2ccc(OC3CCNCC3)c(c2)-c2cc1ccc2O` (racemic) [Compound 609, rac-(8S,11S,14S)-N-(cyanomethyl)-18-hydroxy-11-methyl-14-[methyl-[rac-(2S)-4-amino-2-[[2-(4-tert-butylphenyl)-4,6-dimethyl-pyrimidine-5-carbonyl]amino]butanoyl]amino]-10,13-dioxo-3-(4-piperidyloxy)-9,12-diazatricyclo[13.3.1.12,6]icosa-1(18),2(20),3,5,15(19),16-hexaene-8-carboxamide] was tested, and the MIC was 0.5 µM.

Same assay, conditions: Escherichia coli, ATCC25922, Table 7, cation adjusted Mueller Hinton Broth + 0.002% Tween-80, 35° C., 22 hours
Compound `CC(=N)NCCOc1ccc2cc1-c1cc(ccc1O)C[C@@H](C(=O)NCC#N)NC(=O)[C@H](C)NC(=O)[C@H]2N(C)C(=O)[C@H](CCN)NC(=O)c1c(C)nc(-c2ccc(C(C)(C)C)cc2)nc1C` (racemic) [Compound 603, rac-(8S,11S,14S)-N-(cyanomethyl)-18-[2-(ethanimidoylamino)ethoxy]-3-hydroxy-11-methyl-14-[methyl-[rac-(2S)-4-amino-2-[[2-(4-tert-butylphenyl)-4,6-dimethyl-pyrimidine-5-carbonyl]amino]butanoyl]amino]-10,13-dioxo-9,12-diazatricyclo[13.3.1.12,6]icosa-1(18),2(20),3,5,15(19),16-hexaene-8-carboxamide] has an MIC of 0.44 µM.
